US7053178B2, “Synthetic peptides and kits for diagnosis of anti-phospholipid syndrome” (Yeda Research Development Co., LTD, priority 1998, dated 2006)
Where no end group is shown, it is not given here.

What was measured:
anti-β2GPI mAb G-3 = assay: ELISA binding of G-3 mAb to phage-displayed hexapeptides; set-up: species or system human; scale not given here; details: G-3 mAb 5 μg/ml, 10^9 phage particles/well, O.D. at 405 nm
Experimental: (§1) (a) Epitope Library. The hexapeptide epitope library was kindly provided by George P. Smith (University of Missouri, Columbia, MO) and was constructed by use of the phage fd-derived vector fUSE5 as described (Scott and Smith, 1990). This library consists of 2×10^8 original phage clones each containing a hexapeptide fused to the minor coat protein PIII (Scott and Smith, 1990). (b) Anti-β2GPI mAbs. The human anti-β2GPI mAbs named ILA-1, ILA-3 and G-3 (IgM), were prepared by human-human hybridoma technique from PBL of an APS patient as described (George et al., 1998). Briefly, peripheral blood cells (PBL) were separated from whole blood by Ficoll-Hypaque gradient, the PBL were exposed to pokeweed mitogen for 5 days in order to enrich the B cell population and the lymphocytes were fused with the human lymphoblastoid cell line GM4672 in the presence of polyethyleneglycol (PEG 1500). After fusion, the cells were seeded into 96-well tissue culture plates with RPMI 1640, 10% FCS and hypoxanthine-aminopterin-thymidine (HAT) selection media. New clones were detected after 4–5 weeks, grown and screened for binding to β2GPI by ELISA. All clones were subjected 4 times to limiting dilution cloning procedures in regular medium. […] The hexapeptide epitope library of section (a) above was used as described (Scott and Smith, 1990). Briefly, a library sample containing 3.8×10^9 infectious phage particles was subjected to three rounds of selection (panning) and amplification. For each selection cycle a biotinylated mAb prepared as described in section (b) above (10 μg in the first panning and 1 μg for the others) was added in a total volume of 50 μl. The phages were preincubated with the biotinylated mAb overnight at 4° C., and the reaction mixtures were then layered in 1 ml PBS on streptavidin-coated 30-mm polystyrene petri dishes (Nunc, Kamstrup, Roskilde, Denmark) for 30 min at room temperature. Unbound phages were removed by extensive washings in PBS, and the remaining phages were eluted with 0.1M glycine-HCl, pH 2.2, and neutralized with Tris 1M. […]

anti-β2GPI mAb ILA-3 = assay: ELISA binding of ILA-3 mAb to phage-displayed hexapeptides; set-up: species or system human; scale not given here; details: ILA-3 mAb 5 μg/ml, 10^9 phage particles/well, O.D. at 405 nm
Experimental: as §1, with “1990).” for “1990). Briefly, a library sample containing 3.8×10^9 infectious phage particles was subjected to three rounds of selection (panning) and amplification. For each selection cycle a biotinylated mAb prepared as described in section (b) above (10 μg in the first panning and 1 μg for the others) was added in a total volume of 50 μl. The phages were preincubated with the biotinylated mAb overnight at 4° C., and the reaction mixtures were then layered in 1 ml PBS on streptavidin-coated 30-mm polystyrene petri dishes (Nunc, Kamstrup, Roskilde, Denmark) for 30 min at room temperature. Unbound phages were removed by extensive washings in PBS, and the remaining phages were eluted with 0.1M glycine-HCl, pH 2.2, and neutralized with Tris 1M.”

anti-β2GPI mAb ILA-1 = assay: ELISA binding of ILA-1 mAb to phage-displayed hexapeptides; set-up: species or system human; details: ILA-1 mAb 5 μg/ml, 10^9 phage particles/well, O.D. at 405 nm
Experimental: as §1, with “1990).” for “1990). Briefly, a library sample containing 3.8×10^9 infectious phage particles was subjected to three rounds of selection (panning) and amplification. For each selection cycle a biotinylated mAb prepared as described in section (b) above (10 μg in the first panning and 1 μg for the others) was added in a total volume of 50 μl. The phages were preincubated with the biotinylated mAb overnight at 4° C., and the reaction mixtures were then layered in 1 ml PBS on streptavidin-coated 30-mm polystyrene petri dishes (Nunc, Kamstrup, Roskilde, Denmark) for 30 min at room temperature. Unbound phages were removed by extensive washings in PBS, and the remaining phages were eluted with 0.1M glycine-HCl, pH 2.2, and neutralized with Tris 1M.”

Substance	Binding O.D. (anti-β2GPI mAb G-3) [O.D.]	Binding O.D. (anti-β2GPI mAb ILA-1) [O.D.]	other results
TLRVYK [T L R V Y K]	791 ± 33	–	–
TLLRVY [T L L R V Y]	869 ± 71	–	–
KDKATF [K D K A T F]	–	–	Binding O.D. (anti-β2GPI mAb ILA-3): 1178 ± 101 O.D.
TKLRVY [T K L R V Y]	954 ± 62	–	–
LKTPRV [L K T P R V]	–	975 ± 72	–
KTPRVT [K T P R V T]	–	1201 ± 142	–
